These results are taken from PubChem BioAssay AID330 (DTP/NCI, 2004).

For this assay, the system named is P388 leukemia ip, CD2F1 mice, survival T/C. The assay can be described thus: NCI In Vivo Anticancer Drug Screen. Data for tumor model P388 Leukemia (intraperitoneal) in CD2F1 (CDF1) mice. The settings on record: endpoint: median survival time, higher = longer survival. The method, boiled down:
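Mice carrying the transplanted tumor received test compound or vehicle. Survival was recorded in each group, and the value is the treated-group measurement divided by that of the vehicle-treated control group.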

[1] abbreviates: dose: 60.0 mg/kg/injection, schedule: Q01DX005 (ip), vehicle: saline with Tween-80.
The mark [2] stands for this setting: dose: 120.0 mg/kg/injection, schedule: Q01DX005 (ip), vehicle: saline with Tween-80.
[3] abbreviates: dose: 240.0 mg/kg/injection, schedule: Q01DX005 (ip), vehicle: saline with Tween-80.
[4] abbreviates: dose: 50.0 mg/kg/injection, schedule: Q01DX005 (ip), vehicle: Klucel (hydroxypropylcellulose) (HPC).
Where [5] appears, read: dose: 100.0 mg/kg/injection, schedule: Q01DX005 (ip), vehicle: Klucel (hydroxypropylcellulose) (HPC).
[6] abbreviates: dose: 200.0 mg/kg/injection, schedule: Q01DX005 (ip), vehicle: Klucel (hydroxypropylcellulose) (HPC).
[7] abbreviates: dose: 50.0 mg/kg/injection, schedule: Q01DX005 (ip), vehicle: saline.
Where [8] appears, read: dose: 100.0 mg/kg/injection, schedule: Q01DX005 (ip), vehicle: saline.
Setting [9] is: dose: 200.0 mg/kg/injection, schedule: Q01DX005 (ip), vehicle: saline.
Where [10] appears, read: dose: 50.0 mg/kg/injection, schedule: Q01DX005 (ip), vehicle: saline with Tween-80.
The mark [11] stands for this setting: dose: 100.0 mg/kg/injection, schedule: Q01DX005 (ip), vehicle: saline with Tween-80.
[12] abbreviates: dose: 200.0 mg/kg/injection, schedule: Q01DX005 (ip), vehicle: saline with Tween-80.
Where [13] appears, read: dose: 50.0 mg/kg/injection, schedule: Q01DX009 (ip), vehicle: saline with Tween-80.
Setting [14] is: dose: 200.0 mg/kg/injection, schedule: Q01DX009 (ip), vehicle: saline with Tween-80.

Where “and” joins values, the source holds several entries; their conditions need not be identical. Identical values can stand only once. Toxic doses and inconclusive results are not listed.

Regarding `c1ccc(C[N+]23CCN(CC2)CC3)cc1`, the T/C runs as follows: (dose: 12.5 mg/kg/injection, schedule: Q04DX003 (ip), vehicle: saline) 109 % of control; (dose: 25.0 mg/kg/injection, schedule: Q04DX003 (ip), vehicle: saline) 95 % of control; (dose: 50.0 mg/kg/injection, schedule: Q04DX003 (ip), vehicle: saline) 90 % of control.

Turning to `CSC1=NSC(c2ccccc2)=C(c2ccccc2)S1`, the T/C is, setting by setting: under setting [1], 111 % of control; under setting [2], 122 % of control; under setting [3], 119 % of control.

As for `Cc1cc(O)c(Br)cc1O`, the T/C is 100 % of control under setting [4], 97 % of control under setting [5] and 97 % of control under setting [6].

Regarding `CCCCCCCCCCCCCCCC[N+](C)(C)CCNC(=O)C1CSC(C)(C)N1C=O` (stereo unspecified), the T/C (dose: 12.5 mg/kg/injection, schedule: Q01DX009 (ip), vehicle: saline) is 106 % of control and the T/C (dose: 25.0 mg/kg/injection, schedule: Q01DX009 (ip), vehicle: saline) was 97 % of control.

`CCC1=C(O)C(=O)C(C)(C)C1=O`: the T/C reads like this: under setting [7], 99 % of control and 101 % of control; under setting [8], 100 % of control and 96 % of control; under setting [9], 90 % of control and 98 % of control.

Take `COC1=CC(=O)C(C(C)=O)=C(C#N)C1=O`: the T/C is, setting by setting: (dose: 100.0 mg/kg/injection, schedule: Q04DX002 (ip), vehicle: saline with Tween-80) 100 % of control; (dose: 200.0 mg/kg/injection, schedule: Q04DX002 (ip), vehicle: saline with Tween-80) 100 % of control; (dose: 400.0 mg/kg/injection, schedule: Q04DX002 (ip), vehicle: saline with Tween-80) 90 % of control.

In the case of `O=NN(CCF)C(=O)NC12CC3CC(CC(C3)C1)C2`, the T/C runs as follows: (dose: 22.0 mg/kg/injection, schedule: Q04DX003 (ip), vehicle: saline with Tween-80) 175 % of control; (dose: 33.0 mg/kg/injection, schedule: Q04DX003 (ip), vehicle: saline with Tween-80) 195 % of control; (dose: 50.0 mg/kg/injection, schedule: Q04DX003 (ip), vehicle: saline with Tween-80) 225 % of control; (dose: 75.0 mg/kg/injection, schedule: Q04DX003 (ip), vehicle: saline with Tween-80) 240 % of control; (dose: 100.0 mg/kg/injection, schedule: Q04DX003 (ip), vehicle: Klucel (hydroxypropylcellulose) (HPC)) 259 % of control.

Take `CCOC(CN)(OCC)c1ccncc1`: the T/C under setting [7] was 102 % of control, the T/C under setting [8] is 101 % of control and the T/C under setting [9] is 101 % of control.

Regarding `COc1c(CCl)cc(-c2sc3ccccc3c(=O)c2CCl)cc1CCl`, the T/C was 106 % of control and 93 % of control (dose: 25.0 mg/kg/injection, schedule: Q01DX005 (ip), vehicle: saline with Tween-80); 100 % of control and 114 % of control and 97 % of control under setting [10]; 100 % of control and 106 % of control under setting [11]; 108 % of control and 124 % of control under setting [12].

As for `CCCCCCCCC#CC(=O)OC`, the T/C runs as follows: under setting [13], 97 % of control; (dose: 100.0 mg/kg/injection, schedule: Q01DX009 (ip), vehicle: saline with Tween-80) 92 % of control; under setting [14], 97 % of control.

As to `CCOc1cc2c(cc1C(CC)c1ccc(O)cc1)OCO2` (stereo unspecified), the T/C by setting is: (dose: 50.0 mg/kg/injection, schedule: Q01DX005 (ip), vehicle: distilled water + Tween-80) 93 % of control; (dose: 100.0 mg/kg/injection, schedule: Q01DX005 (ip), vehicle: distilled water + Tween-80) 93 % of control; (dose: 200.0 mg/kg/injection, schedule: Q01DX005 (ip), vehicle: distilled water + Tween-80) 96 % of control.

Consider `Cn1c(C(=O)N/N=C\C2OC3OC(C)(C)OC3C3OC(C)(C)OC23)cc2cc(OCc3ccccc3)ccc21` (stereo unspecified), for which the T/C was 103 % of control under setting [4], 101 % of control under setting [5] and 97 % of control under setting [6].

Turning to `Cc1ccc(-c2csc3nc(C)c(CN4CCOCC4)c(=O)n23)cc1`, the T/C runs as follows: (dose: 25.0 mg/kg/injection, schedule: Q04DX002 (ip), vehicle: Klucel (hydroxypropylcellulose) (HPC)) 99 % of control; (dose: 50.0 mg/kg/injection, schedule: Q04DX002 (ip), vehicle: Klucel (hydroxypropylcellulose) (HPC)) 106 % of control; (dose: 100.0 mg/kg/injection, schedule: Q04DX002 (ip), vehicle: Klucel (hydroxypropylcellulose) (HPC)) 101 % of control; (dose: 200.0 mg/kg/injection, schedule: Q04DX002 (ip), vehicle: Klucel (hydroxypropylcellulose) (HPC)) 102 % of control.

As for `CC1CC(C)(O)CC(C(O)CC2CC(=O)NC(=O)C2)C1=O` (stereo unspecified), the T/C reads like this: (dose: 77.8 micrograms/kg/injection, schedule: Q01DX009 (ip), vehicle: saline) 123 % of control; (dose: 216.0 micrograms/kg/injection, schedule: Q01DX009 (ip), vehicle: saline) 152 % of control and 162 % of control; (dose: 360.0 micrograms/kg/injection, schedule: Q01DX009 (ip), vehicle: saline) 165 % of control; (dose: 467.0 micrograms/kg/injection, schedule: Q04DX003 (ip), vehicle: saline) 120 % of control; (dose: 778.0 micrograms/kg/injection, schedule: Q04DX003 (ip), vehicle: saline) 120 % of control; (dose: 1300.0 micrograms/kg/injection, schedule: Q04DX003 (ip), vehicle: saline) 120 % of control. The T/C was 124 % of control (dose: 2160.0 micrograms/kg/injection, schedule: Q04DX003 (ip), vehicle: saline) and 118 % of control (dose: 3600.0 micrograms/kg/injection, schedule: Q04DX003 (ip), vehicle: saline).

For `CC1(C)CC(=O)C=C(OS(=O)(=O)C(F)(F)F)C1`, the T/C reads like this: (dose: 12.5 mg/kg/injection, schedule: Q01DX009 (ip), vehicle: distilled water + Tween-80) 111 % of control; (dose: 25.0 mg/kg/injection, schedule: Q01DX009 (ip), vehicle: distilled water + Tween-80) 112 % of control; (dose: 50.0 mg/kg/injection, schedule: Q01DX009 (ip), vehicle: distilled water + Tween-80) 98 % of control.

As for `C[Si](C)(C)CN(Cc1ccccc1)C(=O)c1ccccc1[N+](=O)[O-]`, the T/C is, setting by setting: under setting [10], 105 % of control; under setting [11], 98 % of control; under setting [12], 103 % of control.

In the case of `C/C(CCCC(C)(C)C(=O)O)=N/Nc1ccc([N+](=O)[O-])cc1[N+](=O)[O-]`, the T/C is, setting by setting: (dose: 12.5 mg/kg/injection, schedule: Q01DX009 (ip), vehicle: saline with Tween-80) 104 % of control; (dose: 25.0 mg/kg/injection, schedule: Q01DX009 (ip), vehicle: saline with Tween-80) 100 % of control; under setting [13], 92 % of control and 95 % of control.

Consider `Cn1c(=O)ccc2c3ncccc3c(C(F)(F)F)cc21`, for which the T/C (dose: 100.0 mg/kg/injection, schedule: Q01DX001 (ip), vehicle: saline with Tween-80) is 99 % of control; the T/C (dose: 200.0 mg/kg/injection, schedule: Q01DX001 (ip), vehicle: saline with Tween-80) is 100 % of control; the T/C (dose: 400.0 mg/kg/injection, schedule: Q01DX001 (ip), vehicle: saline with Tween-80) was 101 % of control.

As for `C=C(C)CN1C(=O)C(C)S/C1=N/N=C1/SCC(=O)N1C` (stereo unspecified), the T/C is, setting by setting: (dose: 62.5 mg/kg/injection, schedule: Q01DX009 (ip), vehicle: saline) 99 % of control; (dose: 125.0 mg/kg/injection, schedule: Q01DX009 (ip), vehicle: saline) 98 % of control.

As for `O=C1c2ccsc2CN2C(=O)CCC12` (stereo unspecified), the T/C under setting [1] is 95 % of control, the T/C under setting [2] was 103 % of control and the T/C under setting [3] was 110 % of control.

Take `Cc1ccc(Cl)c(S(=O)(=O)F)c1`: the T/C under setting [14] is 104 % of control and the T/C (dose: 400.0 mg/kg/injection, schedule: Q01DX009 (ip), vehicle: saline with Tween-80) was 100 % of control.

Consider `O=C1CSC(c2cccc(Cl)c2)N1CCN1C(=O)CSC1c1cccc(Cl)c1` (stereo unspecified), for which the T/C under setting [10] was 100 % of control, the T/C under setting [11] was 93 % of control and the T/C under setting [12] is 86 % of control.

Regarding `CN=C(N)N/N=C(\c1ccc(Cl)cc1)c1ccc([N+](=O)[O-])cc1Cl`, the T/C was 100 % of control (dose: 25.0 mg/kg/injection, schedule: Q04DX002 (ip), vehicle: saline with Tween-80) and 101 % of control (dose: 50.0 mg/kg/injection, schedule: Q04DX002 (ip), vehicle: saline with Tween-80).

Consider `Cc1nc(O)c(-c2ccc(Cl)cc2)c(=O)[nH]1`, for which the T/C under setting [1] was 102 % of control and the T/C under setting [2] was 109 % of control.
